Results: US7358278B2, “Cellular phosphorylation potential enhancing compositions preparation and use thereof” (priority 1994, dated 2008)
Marks after values point to notes of the source that are not given here.

Tests used:
[1] = tested on: rat cerebral cortical astrocytes; format: cell-based; settings: FIG. 11
Experimental: Astrocytes were treated with increasing amounts of the ER calcium pump inhibitor thapsigargin for 24 hrs in either Krebs buffer or MEM. Cell viability was determined using the MTT assay.
FIG. 10. Exogenous pyruvate provides protection to astrocytes from calcium overload in Krebs Buffer.
For these experiments astrocytes were cultured in either MEM or in Krebs alone or in Krebs with different aminoacid additions grouped as in FIG. 8. Aminoacids were used at 1 mM each. Following 30 min incubation with aminoacids, 15 μM thapsigargin was added to the cultures and the astrocytes cultured for another 24 hours in the presence or absence of 10 mM cinnamate, at which point cell viability was determined using the MTT assay. Cell viability is expressed as percent of that seen with MEM without thapsigargin addition. At the 15 μM thapsigargin dose, about 80% viability is seen in MEM and this is reduced to 20% by the addition of pyruvate. […]
The combination of pyruvate, nicotinamide, and creatine has synergistic benefits for cellular energy metabolism and is also cytoprotective. […] Since we had shown that pyruvate protects neurons from calcium overload induced by thapsigargin toxicity, we first determined whether endogenously produced or exogenously supplied pyruvate could protect astrocytes from calcium overload induced by thapsigargin as shown previously for GT1-7 neurons. […]

rat cortical neurons = experiment: Glutamate-induced delayed toxicity, neuroprotection, MTT assay; settings: FIG. 5b
Experimental: Cell death (glutamate toxicity) was measured using the MTT assay.
The glutamate exposure involved treatment wit 100 micromoolar glutamate for 30 min followed by its removal. […] All data are means +1-SEM from at least three different experiments.
To study glutamate neurotoxicity, we utilized primary cultures of rat cortical neurons and used a glutamate pulse model which produces delayed neuronal death in 24 hrs. All studies were performed in Locke's medium prepared in our laboratory to avoid contribution from the vitamins and additives typically found in many commercial media.
To determine whether the protective effects of pyruvate against glutamate toxicity were due to its effect on cell metabolism, we utilized 4-hydroxycinnamate, a compound that blocks the transporter by which pyruvate enters mitochondria. While pyruvate can exert its antioxidant effects in any compartment, its utilization in energy metabolism requires its entry into mitochondria.

GT1-7 neurons [2] = experiment: Whole cell NADH levels by NADH fluorescence in suspended cells; format: cell-based, rat; settings: 1 mM each, 1 hour incubation, Locke's media; * significant vs Locke's medium alone P<0.05
Experimental: (§1) While each of these agents may have additional neuroprotective properties outside of their role in energy metabolism, our major premise is that this combination will provide neuroprotection through enhancement of brain energy levels. To assess this we monitored three different bioenergetic parameters: Whole cell NADH levels, cellular ATP levels and cellular phosphocreatine levels. GT1-7 cells or cross-chopped rat cerebral cortical slices were equilibrated in oxygenated Locke's media for 1 hour. Pyruvate, nicotinamide, or creatine were than added alone or in combination at 1 mM each. Analytes were measured after another hour of incubation. NADH was measured using its specific fluorescence properties in suspended cells and the effect of each nutrient alone and in combination on GT1-7 neuronal NADH levels is shown in table 2a. Pyruvate would be expected to raise mitochondrial NADH levels through its participation in the Krebs cycle and it indeed appears to account for all of this effect in the combination. ATP and phosphocreatine were measured via a chemiluminescent assay utilizing firefly luciferase. In viable cells, phosphocretine levels most adequately reflect cellular energy supply since cells readily convert any excess ATP into phosphocreatine.

GT1-7 neurons [3] = experiment: Cellular ATP and phosphocreatine levels, chemiluminescent firefly luciferase assay; format: cell-based, rat; settings: 1 mM each, 1 hour incubation; for ATP (% control) / CP (% control): Locke's media; for CP (% control): phosphocreatine
Experimental: as §1

GT1-7 cells = experiment: Thapsigargin (calcium overload) toxicity, neuroprotection, MTT dye reduction assay; settings: 20 micromolar thapsigargin, FIG. 4B
Experimental: GT1-7 cell were subjected to treatments and assessed for nutrient neuroprotection as described in the text. All data are means +/− SEM from at least three different experiments.
To study calcium overload toxicity, we treated cells with thapsigargin, an agent that blocks the endoplastic reticulum calcium pump and markedly elevates cytoplasmic calcium levels. […] All studies were performed in Locke's medium prepared in our laboratory to avoid contribution from the vitamins and additives typically found in many commercial media. After determining the toxin treatment dose needed to produce complete toxicity, we then treated the cells dose-dependently with pyruvate, nicotinamide (nicotinamide) and creatine, either alone or in combination along with the LD95 dose of the toxins. […] For the combination experiments, all three agents are added together and the x-axis indicates the concentration of each agent in the combination.

[4] = tested on: rat cerebral cortical slices; experiment: ATP and phosphocreatine levels in cross-chopped cerebral cortical slices, firefly luciferase assay; format: cell-based; settings: 1 mM each
Experimental: as §1, with “Analytes were measured after another hour of incubation.” left out, “phosphocreatine. […] The response with the combination was larger and was maintained after 6 hours of continued incubation.” for “phosphocreatine.”

Structure (SMILES)	effect of cinnamate on susceptibility of MEM cultured astrocytes to thapsigargin (in words) [1]	effect on glutamate toxicity alone (in words) (rat cortical neurons)	effect on the protection by pyruvate (in words) (rat cortical neurons)	NADH fluorescence (GT1-7 neurons [2])	CP/ATP Ratio (GT1-7 neurons [3])	ATP (% control) (GT1-7 neurons [3])	CP (% control) (GT1-7 neurons [3])	protection against calcium overload (in words) (GT1-7 cells)	ATP % ctr ([4]; 1 h)	CP % ctr ([4]; 1 h)	CP/ATP Ratio ([4]; 1 h)	ATP % ctr ([4]; 6 h)	CP % ctr ([4]; 6 h)	CP/ATP Ratio ([4]; 6 h)
O=C(O)C=Cc1ccc(O)cc1 [4-hydroxycinnamate]	more susceptible to thapsigargin toxicity	no significant effect on glutamate toxicity alone	prevents the protective effects of pyruvate	–	–	–	–	–	–	–	–	–	–	–
CN(CC(=O)O)C(=N)N [Creatine, creatine]	–	–	–	99.3 ± 2.3	115.2	42 + 14.2* % control	3314.3 + 920* % control	nearly complete dose dependent protection	–	–	–	–	–	–
NC(=O)c1cccnc1 [Nicotinamide, nicotinamide]	–	–	–	98.8 ± 2.2	4.3	48.6 ± 23.4 % control	133.1 + 25 % control	nearly complete dose dependent protection	–	–	–	–	–	–
CC(=O)C(=O)O [Pyruvate, pyruvate]	–	–	–	134.64 ± 9.9*	6	103.5 ± 17.7 % control	551.7 ± 193.7 % control	–	77.7 % ctr	233.6 % ctr	3.1	143.6 % ctr	150.6 % ctr	1
